According to patent US6479487B1, “6, 9-disubstituted 2-[trans-(4-aminocyclohexyl)amino] purines” (Aventis Pharmaceuticals Inc., priority 1998, dated 2002):
Values joined by “and” are separate entries in the source; they are usually repeats but may differ in a detail not shown here. Equal entries are not always repeated. Structures can show the parent of a compound that is named as a salt. Where two headings read alike, the source gives them in different places.

Legend:
cdk2/cyclin E = biological target: T1, cdk2/cyclin E (Homo sapiens, UniProt P24941); assay: Cyclin-Dependent Kinase 2 Assay (cdk2/cyclin E, GST-Rb substrate); assay type: biochemical; conditions: recombinant cdk2/cyclin E, 10 μM ATP, 30 min at 30° C., several values in a cell = separate determinations, read-out: CDK-2 Inhibition IC50
T1 construct: made in house; host or cells: insect cells (baculovirus co-infection)
Method: Substrate: GST-Rb as described above for cdk4/cyclin D1
Assay conditions for cdk2/cyclin E were identical to those for cdk4/cyclin D1 including the substrate. The concentration of recombinant cdk2/cyclin E in the assay was 0.1 μg per 100 μl assay. Incubation was for 30 min at 30° C.

cdk4/cyclin D1 = biological target: T2, cdk4/cyclin D1 (Homo sapiens, UniProt P11802); assay: Cyclin-dependent Kinase 4 Assay (cdk4/cyclin D1, GST-Rb substrate); assay type: biochemical; conditions: cdk4/cyclin D1 insect cell lysate, 10 μM ATP, 30 min at 37° C., several values = separate determinations, read-out: CDK4 Inhibition IC50
T2 construct: made in house; host or cells: Sf9 insect cells (Bac-to-Bac baculovirus, pFastBac)
Method in brief: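 IC50 against cdk4 measured by scintillation counting of bead-bound GST-Rb (0.5 μg) after filtration and four TNEN washes. Reaction was 30 min at 37 °C in HEPES pH 7.5 buffer with 10 mM MgCl2 and 1 mM EGTA. Enzyme source was 0.1 μg Sf9 lysate coinfected with cdk4 and cyclin D1.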

MDA-MB-231 = assay: In vitro tumor cell proliferation, MDA-MB-231; assay type: cell-based, human; conditions: sulforhodamine B or CyQUANT assay, many values given with an undefined *, read-out: In vitro Tumor Cell Proliferation (IC50, μM) Breast MDA-MB-231
Method in brief: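 Proliferation quantified by SRB staining of TCA-fixed cells after 3 days of drug plus 4 days with replenished drug, following overnight attachment at 37 °C.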

MDA-MB-435 = assay: In vitro tumor cell proliferation, MDA-MB-435; assay type: cell-based; conditions: values given with an undefined *, read-out: In vitro Tumor Cell Proliferation (IC50, μM) Breast MDA-MB-435
Method in brief: (§1)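 Growth was quantified by sulforhodamine B staining of TCA-fixed cells after 3 days of drug plus 4 more days with fresh drug, or by CyQUANT after 3 days of drug and freezing at −80° C. Counted viable cells were plated and incubated overnight at 37° C before drug.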

HT-29 = assay: In vitro tumor cell proliferation, HT-29; assay type: cell-based, human; conditions: many values given with an undefined *, read-out: In vitro Tumor Cell Proliferation (IC50, μM) Colon HT-29
Method in brief: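 Growth was quantified either with CyQUANT, plates frozen at −80° C after 3 days of drug, or by sulforhodamine B staining of TCA-fixed cells after 3 days of drug plus 4 days with fresh drug. Trypan blue-excluding HT-29 cells were plated overnight at 37° C before dosing.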

Colo-205 = assay: In vitro tumor cell proliferation, Colo-205; assay type: cell-based; conditions: values given with an undefined *, read-out: In vitro Tumor Cell Proliferation (IC50, μM) Colon Colo-205
Method in brief: as §1

A549 = assay: In vitro tumor cell proliferation, A549; assay type: cell-based, human; conditions: many values given with an undefined *, read-out: In vitro Tumor Cell Proliferation (IC50, μM) Lung A549
Method in brief: as §1

DMS-114 = assay: In vitro tumor cell proliferation, DMS-114; assay type: cell-based, human; conditions: many values given with an undefined *, read-out: In vitro Tumor Cell Proliferation (IC50, μM) Lung DMS-114
Method in brief: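 Human small cell lung carcinoma DMS-114 cells plated overnight, then drug-treated for 3 days, medium and drug renewed, and incubated 4 more days. Growth read by sulforhodamine B staining after TCA fixation; alternatively by CyQUANT after 3 days' drug exposure and freezing at −80 °C.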

PC-3 = assay: In vitro tumor cell proliferation, PC-3; assay type: cell-based, human; conditions: many values given with an undefined *, read-out: In vitro Tumor Cell Proliferation (IC50, μM) Prostate PC-3
Method in brief: as §1

DU145 = assay: In vitro tumor cell proliferation, DU145; assay type: cell-based, human; conditions: many values given with an undefined *, read-out: In vitro Tumor Cell Proliferation (IC50, μM) Prostate DU145
Method in brief: as §1

[1] = Homo sapiens, MDA-MB-231, MDA-MB-231
[2] = Homo sapiens, MDA-MB-435, MDA-MB-435
[3] = Homo sapiens, COLO 205, Colo-205

T2 sequence (P11802 whole entry): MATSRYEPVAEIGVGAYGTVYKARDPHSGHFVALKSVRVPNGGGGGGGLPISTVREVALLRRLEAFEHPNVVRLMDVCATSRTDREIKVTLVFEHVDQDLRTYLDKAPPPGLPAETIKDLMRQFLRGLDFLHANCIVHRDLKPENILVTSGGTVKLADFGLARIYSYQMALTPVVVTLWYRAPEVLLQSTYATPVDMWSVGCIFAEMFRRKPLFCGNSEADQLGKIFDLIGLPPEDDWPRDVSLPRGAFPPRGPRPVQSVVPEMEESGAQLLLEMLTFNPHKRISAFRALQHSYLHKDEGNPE
T2 sequence (P24385 whole entry partner): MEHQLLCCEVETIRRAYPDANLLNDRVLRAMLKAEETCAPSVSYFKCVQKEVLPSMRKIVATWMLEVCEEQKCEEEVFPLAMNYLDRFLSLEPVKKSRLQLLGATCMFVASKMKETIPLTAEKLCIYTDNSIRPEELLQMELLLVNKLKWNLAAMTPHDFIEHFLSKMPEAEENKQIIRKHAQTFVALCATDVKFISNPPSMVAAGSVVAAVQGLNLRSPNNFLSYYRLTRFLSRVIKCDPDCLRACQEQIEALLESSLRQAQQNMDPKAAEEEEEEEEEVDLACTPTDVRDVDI

SMILES | IC50 (cdk2/cyclin E) | IC50 (cdk4/cyclin D1) | IC50 (MDA-MB-231; [1]) [µM] | IC50 (MDA-MB-231; MDA-MB-231, trihydrochloride) [µM] | IC50 (MDA-MB-435; [2]) [µM] | IC50 (MDA-MB-435; MDA-MB-435, trihydrochloride) [µM] | IC50 (HT-29; HT-29, trihydrochloride) [µM] | IC50 (HT-29; Homo sapiens, HT-29, HT-29) [µM] | IC50 (Colo-205; [3]) [µM] | IC50 (A549; A549, trihydrochloride) [µM] | IC50 (A549; Homo sapiens, A549, A549) [µM] | IC50 (DMS-114; DMS-114, trihydrochloride) [µM] | IC50 (DMS-114; Homo sapiens, DMS-114, DMS-114) [µM] | IC50 (PC-3; Homo sapiens, PC-3, PC-3) [µM] | IC50 (PC-3; PC-3, trihydrochloride) [µM] | IC50 (DU145; DU145, trihydrochloride) [µM] | IC50 (DU145; Homo sapiens, DU-145, DU145) [µM] | IC50 (Colo-205; Colo-205, trihydrochloride) [µM]
N[C@H]1CC[C@H](Nc2nc(NC3CCN(Cc4cccc(F)c4)CC3)c3ncn(C4CCCC4)c3n2)CC1 [Example 147-j, 2-[Trans-(4-aminocyclohexyl)amino]-6-[4-[1-(3-fluorobenzyl)]piperidinylamino]-9-cyclopentylpurine trihydrochloride] | 0.2 µM and 0.21 µM | 1.3 µM and 0.72 µM | 0.2 | 0.21 | 0.27 | 0.3 | 0.22 | 0.3 | 0.17 | 0.14 | 0.15 | 0.25 | 0.37 | 0.17 | 0.26 | 0.2 | 0.21 | 
N[C@H]1CC[C@H](Nc2nc(NC3CCN(Cc4ccccc4F)CC3)c3ncn(C4CCCC4)c3n2)CC1 [Example 147-k, 2-[Trans-(4-aminocyclohexyl)amino]-6-[4-[1-(2-fluorobenzyl)]piperidinylamino]-9-cyclopentylpurine trihydrochloride] | 0.2 µM and 0.17 µM | 2.9 µM |  | 0.32 | 0.39 |  | 0.26 | 0.4 | 0.26 | 0.16 | 0.29 | 0.29 | 0.45 | 0.35 | 0.34 | 0.15 | 0.3 | 0.15
N[C@H]1CC[C@H](Nc2nc(NC3CCN(Cc4ccc(F)cc4)CC3)c3ncn(C4CCCC4)c3n2)CC1 [Example 147-l, 2-[Trans-(4-aminocyclohexyl)amino]-6-[4-[1-(4-fluorobenzyl)]piperidinylamino]-9-cyclopentylpurine trihydrochloride] | 0.26 µM and 0.17 µM and 0.28 µM | 2 µM and 2.7 µM and 1.3 µM | 0.33 | 0.29 | 0.46 |  | 0.4 | 0.37 | 0.26 | 0.19 | 0.26 | 0.43 | 0.48 |  | 0.41 | 0.29 | 0.3 | 0.19
N[C@H]1CC[C@H](Nc2nc(NC3CCN(Cc4cccc(C(F)(F)F)c4)CC3)c3ncn(C4CCCC4)c3n2)CC1 [Example 147-m, 2-[Trans-(4-aminocyclohexyl)amino]-6-[4-[1-(3-trifluoromethylbenzyl)]piperidinylamino]-cyclopentylpurine trihydrochloride] | 0.065 µM and 0.077 µM | 0.37 µM | 0.32 | 0.33 | 0.42 | 0.56 | 0.35 | 0.34 | 0.18 | 0.22 | 0.17 | 0.32 | 0.29 | 0.25 | 0.5 | 0.35 | 0.32 | 0.17
N[C@H]1CC[C@H](Nc2nc(NC3CCN(Cc4c(F)cccc4Cl)CC3)c3ncn(C4CCCC4)c3n2)CC1 [Example 147-n, 2-[Trans-(4-aminocyclohexyl)amino]-6-[4-[1-(2-chloro-6-fluorobenzyl)]piperidinylamino]-cyclopentylpurine trihydrochloride] | 0.16 µM and 0.34 µM and 0.44 µM | 1.6 µM and 3.1 µM | 0.81 | 0.72 | 0.89 | 1 | 0.64 | 0.71 | 0.44 | 0.33 | 0.39 | 0.8 | 1.1 | 0.73 | 0.93 | 0.59 | 0.6 | 0.32
N[C@H]1CC[C@H](Nc2nc(NC3CCN(Cc4ccc(Cl)c(Cl)c4)CC3)c3ncn(C4CCCC4)c3n2)CC1 [Example 147-o, 2-[Trans-(4-aminocyclohexyl)amino]-6-[4-[1-(3,4-dichlorobenzyl)]piperidinylamino]-9-cyclopentylpurine trihydrochloride] | 0.2 µM and 0.16 µM | 1.8 µM | 0.77 | 0.9 | 0.92 | 1.1 | 0.77 | 0.83 | 0.63 | 0.44 | 0.42 | 0.71 | 0.78 | 0.64 | 0.92 | 0.69 | 0.76 | 0.45
